The values that follow come from US20240116985A1, “STAPLED PEPTIDES AND METHODS THEREOF” (priority 2020, published 2024).

The structures appear in SMILES notation. pIC50: −log10 of the molar value.

The target of the assay is T1, full-length beta-Catenin (Uniprot ID P35222) (Homo sapiens, UniProt P35222).
T1 construct: 10 nM full-length beta-Catenin (Uniprot ID P35222)
T1 sequence (P35222 1-781): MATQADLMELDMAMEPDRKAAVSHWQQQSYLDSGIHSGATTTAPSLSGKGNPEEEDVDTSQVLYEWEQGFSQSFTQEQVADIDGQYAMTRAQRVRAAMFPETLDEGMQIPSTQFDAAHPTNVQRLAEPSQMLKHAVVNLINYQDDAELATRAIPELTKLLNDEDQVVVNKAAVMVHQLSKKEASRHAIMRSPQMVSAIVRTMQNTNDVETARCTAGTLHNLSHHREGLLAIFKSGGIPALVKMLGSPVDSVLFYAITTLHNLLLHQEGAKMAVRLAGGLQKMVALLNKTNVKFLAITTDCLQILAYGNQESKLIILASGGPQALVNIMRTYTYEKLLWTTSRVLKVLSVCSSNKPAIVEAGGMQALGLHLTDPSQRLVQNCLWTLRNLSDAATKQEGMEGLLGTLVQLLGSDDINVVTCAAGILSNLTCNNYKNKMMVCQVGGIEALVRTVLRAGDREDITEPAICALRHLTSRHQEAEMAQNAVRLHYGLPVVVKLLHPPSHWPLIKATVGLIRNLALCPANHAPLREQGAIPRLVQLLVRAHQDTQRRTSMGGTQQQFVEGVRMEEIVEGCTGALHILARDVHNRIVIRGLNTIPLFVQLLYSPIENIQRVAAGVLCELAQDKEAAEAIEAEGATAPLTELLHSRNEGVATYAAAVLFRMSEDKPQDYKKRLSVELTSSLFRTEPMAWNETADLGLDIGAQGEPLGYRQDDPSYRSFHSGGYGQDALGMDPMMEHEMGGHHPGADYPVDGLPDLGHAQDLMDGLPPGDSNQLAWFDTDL
Description: Fluorescence polarization IC50 (beta-catenin / 5FAM-TCF4 10-53 competition). Particulars: fluorescence polarization; read-out: beta-Catenin FP IC50. It is filed as binding.
In the case of `CC(=O)N1CCC[C@]12CC=CCCCC1(CCCC=CCCCOC(=O)N3CC[C@@](C(=O)N[C@@H](Cc4ccsc4)C(=O)N[C@@H](Cc4csc5ccccc45)C(=O)N[C@@H](CCC(N)=O)C(N)=O)(C3)NC(=O)[C@H](CC(C)C)NC(=O)[C@H](Cn3cc(CN4CCNCC4)nn3)NC(=O)[C@H](C)NC(=O)[C@H](C)NC(=O)[C@H](CN(CC(=O)O)CC(F)(F)F)NC(=O)[C@H](CC(=O)O)NC1=O)NC(=O)[C@H](CC(C)(C)C)NC(=O)[C@H](CC(=O)O)NC2=O` (stereo partly drawn) [I-1857, Ac-PL3-Asp-Npg-B5-Asp-TfeGA-Ala-Ala-[CH2Ppz]TriAzDap-Leu-PyrS2-3Thi-BztA-Gln-NH2], the pIC50 was 5.40. Turning to `CC(=O)N1CCC[C@]12CC=CCCCC1(CCCC=CCCCOC(=O)N3CC[C@@](C(=O)N[C@@H](Cc4ccsc4)C(=O)N[C@@H](Cc4csc5ccccc45)C(=O)N[C@@H](CCC(N)=O)C(N)=O)(C3)NC(=O)[C@H](CC(C)C)NC(=O)[C@H](Cn3cc(CN4CCOCC4)nn3)NC(=O)[C@H](C)NC(=O)[C@H](C)NC(=O)[C@H](CN(CC(=O)O)CC(F)(F)F)NC(=O)[C@H](CC(=O)O)NC1=O)NC(=O)[C@H](CC(C)(C)C)NC(=O)[C@H](CC(=O)O)NC2=O` (stereo partly drawn) [I-1858, Ac-PL3-Asp-Npg-B5-Asp-TfeGA-Ala-Ala-[MorphCH2]TriAzDap-Leu-PyrS2-3Thi-BztA-Gln-NH2], the pIC50 was 5.96.

Turning to `CC(=O)N1CCC[C@]12CC=CCCCC1(CCCC=CCCCOC(=O)N3CC[C@@](C(=O)N[C@@H](Cc4ccsc4)C(=O)N[C@@H](Cc4csc5ccccc45)C(=O)N[C@@H](CCC(N)=O)C(N)=O)(C3)NC(=O)[C@H](CC(C)C)NC(=O)[C@H](Cn3cc(CN4CCOCC4)nn3)NC(=O)[C@H](C)NC(=O)[C@H](C)NC(=O)[C@H](CN(CC(=O)O)CC(F)(F)F)NC(=O)[C@H](CC(=O)O)NC1=O)NC(=O)[C@H](CC(C)(C)C)NC(=O)[C@H](CC(=O)O)NC2=O` (stereo partly drawn) [I-1859, Ac-PL3-Asp-Npg-B5-Asp-TfeGA-Ala-Ala-[MorphCH2]TriAzDap-Leu-PyrS2-3Thi-BztA-Gln-NH2], the negative logarithm of the IC50 (pIC50) is 5.96. As to `CC(=O)N1CCC[C@]12CC=CCCCC1(CCCC=CCCCOC(=O)N3CC[C@@](C(=O)N[C@@H](Cc4ccsc4)C(=O)N[C@@H](Cc4csc5ccccc45)C(=O)N[C@@H](CCC(N)=O)C(N)=O)(C3)NC(=O)[C@H](CC(C)C)NC(=O)[C@H](Cn3cc(CN4CCS(=O)(=O)CC4)nn3)NC(=O)[C@H](C)NC(=O)[C@H](C)NC(=O)[C@H](CN(CC(=O)O)CC(F)(F)F)NC(=O)[C@H](CC(=O)O)NC1=O)NC(=O)[C@H](CC(C)(C)C)NC(=O)[C@H](CC(=O)O)NC2=O` (stereo partly drawn) [I-1860, Ac-PL3-Asp-Npg-B5-Asp-TfeGA-Ala-Ala-[SO2MorphCH2]TriAzDap-Leu-PyrS2-3Thi-BztA-Gln-NH2], the pIC50 is 6.29. The same measure for `CC(=O)N1CCC[C@]12CC=CCCCC1(CCCC=CCCCOC(=O)N3CC[C@@](C(=O)N[C@@H](Cc4ccsc4)C(=O)N[C@@H](Cc4csc5ccccc45)C(=O)N[C@@H](CCC(N)=O)C(N)=O)(C3)NC(=O)[C@H](Cn3cc(CN4CCNCC4)nn3)NC(=O)[C@H](Cc3ccccc3)NC(=O)[C@H](C)NC(=O)[C@H](C)NC(=O)[C@H](CN(CC(=O)O)CC(F)(F)F)NC(=O)[C@H](CC(=O)O)NC1=O)NC(=O)[C@H](CC(C)(C)C)NC(=O)[C@H](CC(=O)O)NC2=O` (stereo partly drawn) [I-1863, Ac-PL3-Asp-Npg-B5-Asp-TfeGA-Ala-Ala-Phe-[CH2Ppz]TriAzDap-PyrS2-3Thi-BztA-Gln-NH2]: 8.00; for `CC(=O)N1CCC[C@]12CC=CCCCC1(CCCC=CCCCOC(=O)N3CC[C@@](C(=O)N[C@@H](Cc4ccsc4)C(=O)N[C@@H](Cc4csc5ccccc45)C(=O)N[C@@H](CCC(N)=O)C(N)=O)(C3)NC(=O)[C@H](Cn3cc(CN4CCS(=O)(=O)CC4)nn3)NC(=O)[C@H](Cc3ccccc3)NC(=O)[C@H](C)NC(=O)[C@H](C)NC(=O)[C@H](CN(CC(=O)O)CC(F)(F)F)NC(=O)[C@H](CC(=O)O)NC1=O)NC(=O)[C@H](CC(C)(C)C)NC(=O)[C@H](CC(=O)O)NC2=O` (stereo partly drawn) [I-1868, Ac-PL3-Asp-Npg-B5-Asp-TfeGA-Ala-Ala-Phe-[SO2MorphCH2]TriAzDap-PyrS2-3Thi-BztA-Gln-NH2]: 7.92. The same measure for `CC(=O)N1CCC[C@]12CC=CCCCC1(CCCC=CCCCOC(=O)N3CC[C@@](C(=O)N[C@@H](Cc4ccsc4)C(=O)N[C@@H](Cc4csc5ccccc45)C(=O)N[C@@H](CCC(N)=O)C(N)=O)(C3)NC(=O)[C@H](Cn3cc(CN4CCS(=O)(=O)CC4)nn3)NC(=O)[C@H](Cc3ccccc3)NC(=O)[C@H](C)NC(=O)[C@H](C)NC(=O)[C@H](CN(CC(=O)O)CC(F)(F)F)NC(=O)[C@H](CC(=O)O)NC1=O)NC(=O)[C@H](CC(C)(C)C)NC(=O)[C@H](CC(=O)O)NC2=O` (stereo partly drawn) [I-1869, Ac-PL3-Asp-Npg-B5-Asp-TfeGA-Ala-Ala-Phe-[SO2MorphCH2]TriAzDap-PyrS2-3Thi-BztA-Gln-NH2]: 7.92; for `CC(=O)N1CCC[C@]12CC=CCCCC1(CCCC=CCCCOC(=O)N3CC[C@@](C(=O)N[C@@H](Cc4ccsc4)C(=O)N[C@@H](Cc4cccc5ccccc45)C(=O)N[C@@H](CCC(N)=O)C(N)=O)(C3)NC(=O)[C@H](CC(N)=O)NC(=O)[C@H](Cc3ccccc3)NC(=O)[C@H](C)NC(=O)[C@H](C)NC(=O)[C@H]([C@@H](C)O)NC(=O)[C@H](CC(N)=O)NC1=O)NC(=O)[C@H](CC(C)(C)C)NC(=O)[C@H](CC(=O)O)NC2=O` (stereo partly drawn) [I-1870, Ac-PL3-Asp-Npg-B5-Asn-Thr-Ala-Ala-Phe-Asn-PyrS2-3Thi-1NapA-Gln-NH2]: 5.82; for `CC(=O)N1CCC[C@]12CC=CCCCC1(CCCC=CCCCOC(=O)N3CC[C@@](C(=O)N[C@@H](Cc4ccsc4)C(=O)N[C@@H](Cc4cccc5ccccc45)C(=O)N[C@@H](CCC(N)=O)C(N)=O)(C3)NC(=O)[C@H](CC(N)=O)NC(=O)[C@H](Cc3ccccc3)NC(=O)[C@H](C)NC(=O)[C@H](C)NC(=O)[C@H]([C@@H](C)O)NC(=O)[C@H](CC(N)=O)NC1=O)NC(=O)[C@H](CC(C)(C)C)NC(=O)[C@H](CC(=O)O)NC2=O` (stereo partly drawn) [I-1871, Ac-PL3-Asp-Npg-B5-Asn-Thr-Ala-Ala-Phe-Asn-PyrS2-3Thi-1NapA-Gln-NH2]: 5.75. The same measure for `CC(=O)N1CCC[C@]12CC=CCCCC1(CCCC=CCCCOC(=O)N3CC[C@@](C(=O)N[C@@H](Cc4ccsc4)C(=O)N[C@@H](Cc4ccc5ccccc5c4)C(=O)N[C@@H](CCC(N)=O)C(N)=O)(C3)NC(=O)[C@H](CC(N)=O)NC(=O)[C@H](Cc3ccccc3)NC(=O)[C@H](C)NC(=O)[C@H](C)NC(=O)[C@H]([C@@H](C)O)NC(=O)[C@H](CC(N)=O)NC1=O)NC(=O)[C@H](CC(C)(C)C)NC(=O)[C@H](CC(=O)O)NC2=O` (stereo partly drawn) [I-1873, Ac-PL3-Asp-Npg-B5-Asn-Thr-Ala-Ala-Phe-Asn-PyrS2-3Thi-2NapA-Gln-NH2]: 5.83. In the case of `CC(=O)N1CCC[C@]12CC=CCCCC1(CCCC=CCCCOC(=O)N3CC[C@@](C(=O)N[C@@H](Cc4ccsc4)C(=O)N[C@@H](Cc4c[nH]c5ccccc45)C(=O)N[C@@H](CCC(N)=O)C(N)=O)(C3)NC(=O)[C@H](CC(N)=O)NC(=O)[C@H](Cc3ccccc3)NC(=O)[C@H](C)NC(=O)[C@H](C)NC(=O)[C@H]([C@@H](C)O)NC(=O)[C@H](CC(N)=O)NC1=O)NC(=O)[C@H](CC(C)(C)C)NC(=O)[C@H](CC(=O)O)NC2=O` (stereo partly drawn) [I-1876, Ac-PL3-Asp-Npg-B5-Asn-Thr-Ala-Ala-Phe-Asn-PyrS2-3Thi-Trp-Gln-NH2], the pIC50 is 5.87.

As for `CC(=O)N1CCC[C@]12CC=CCCCC1(CCCC=CCCCOC(=O)N3CC[C@@](C(=O)N[C@@H](Cc4ccsc4)C(=O)N[C@@H](Cc4c[nH]c5ccccc45)C(=O)N[C@@H](CCC(N)=O)C(N)=O)(C3)NC(=O)[C@H](CC(N)=O)NC(=O)[C@H](Cc3ccccc3)NC(=O)[C@H](C)NC(=O)[C@H](C)NC(=O)[C@H]([C@@H](C)O)NC(=O)[C@H](CC(N)=O)NC1=O)NC(=O)[C@H](CC(C)(C)C)NC(=O)[C@H](CC(=O)O)NC2=O` (stereo partly drawn) [I-1877, Ac-PL3-Asp-Npg-B5-Asn-Thr-Ala-Ala-Phe-Asn-PyrS2-3Thi-Trp-Gln-NH2], the pIC50 was 5.82. As to `CC(=O)N1CCC[C@]12CC=CCCCC1(CCCC=CCCCOC(=O)N3CC[C@@](C(=O)N[C@@H](Cc4ccsc4)C(=O)N[C@@H](Cc4csc5ccccc45)C(=O)N[C@H](C(N)=O)C(C)C)(C3)NC(=O)[C@H](CC(N)=O)NC(=O)[C@H](Cc3ccccc3)NC(=O)[C@H](C)NC(=O)[C@H](C)NC(=O)[C@H]([C@@H](C)O)NC(=O)[C@H](CC(N)=O)NC1=O)NC(=O)[C@H](CC(C)(C)C)NC(=O)[C@H](CC(=O)O)NC2=O` (stereo partly drawn) [I-1878, Ac-PL3-Asp-Npg-B5-Asn-Thr-Ala-Ala-Phe-Asn-PyrS2-3Thi-BztA-Val-NH2], the pIC50 is 6.34. Turning to `CC(=O)N1CCC[C@]12CC=CCCCC1(CCCC=CCCCOC(=O)N3CC[C@@](C(=O)N[C@@H](Cc4ccsc4)C(=O)N[C@@H](Cc4csc5ccccc45)C(=O)N[C@H](C(N)=O)C(C)C)(C3)NC(=O)[C@H](CC(N)=O)NC(=O)[C@H](Cc3ccccc3)NC(=O)[C@H](C)NC(=O)[C@H](C)NC(=O)[C@H]([C@@H](C)O)NC(=O)[C@H](CC(N)=O)NC1=O)NC(=O)[C@H](CC(C)(C)C)NC(=O)[C@H](CC(=O)O)NC2=O` (stereo partly drawn) [I-1879, Ac-PL3-Asp-Npg-B5-Asn-Thr-Ala-Ala-Phe-Asn-PyrS2-3Thi-BztA-Val-NH2], the pIC50 is 6.25.

For orientation: pIC50 means the negative decadic logarithm of the IC50, by convention in mol/L.
